Experimental data taken from patent US20150315188A1, “COMPOUNDS AND METHODS FOR TREATMENT OF HYPERTENSION” (MEDIVATION TECHNOLOGIES, INC., priority 2012, published 2015).

What was measured:
[1] = biological target: T1, Human adrenergic α2A receptor (Homo sapiens, UniProt P08913); assay: β-Arrestin GPCR functional assay, adrenergic α2A (Protocol B); assay type: cell-based; details: β-arrestin, antagonist vs nor-epinephrine EC80
T1 sequence (P08913 1-465): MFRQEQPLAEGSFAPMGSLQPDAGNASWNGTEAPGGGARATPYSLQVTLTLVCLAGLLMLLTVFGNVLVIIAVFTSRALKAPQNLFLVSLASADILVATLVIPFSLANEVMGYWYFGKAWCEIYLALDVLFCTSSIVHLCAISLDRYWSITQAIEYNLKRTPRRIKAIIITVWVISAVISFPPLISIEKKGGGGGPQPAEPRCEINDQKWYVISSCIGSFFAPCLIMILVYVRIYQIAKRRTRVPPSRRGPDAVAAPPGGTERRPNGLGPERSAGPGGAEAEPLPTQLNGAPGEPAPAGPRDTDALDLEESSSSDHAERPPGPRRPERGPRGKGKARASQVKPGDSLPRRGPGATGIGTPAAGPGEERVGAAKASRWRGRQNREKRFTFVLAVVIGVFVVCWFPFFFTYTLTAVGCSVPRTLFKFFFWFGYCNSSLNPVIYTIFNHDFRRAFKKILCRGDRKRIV
Protocol: To evaluate the activity of compounds in β-Arrestin GPCR functional assays, recombinant CHO cell line (DiscoveRX), over expressed with human adrenergic α2A receptor were used. The experiment was done with kit of DiscoveRX as per recommended protocol of the supplier. Cells were harvested from culture flask using cell dissociation solution (CDS) and plated at a density of 12,000 cells/well in CP reagent (supplied with the kit) in a half area 96-well white polystyrene plate. After 24 h incubation at 37° C., compounds at various concentrations in 1% (final) DMSO were charged to the cells for 30 min at 37° C. Active nor-epinephrine (-NE) at its EC80 concentrations (270 nM) were then added to the cells and incubated for another 90 min at 37° C. Detection mix was prepared by mixing of Path Hunter cell assay buffer, Emerald II solution and Galactone star solution in a ratio of 19:5:1 and incubated with the cells for 60 min at RT in the dark. The reading was taken in Envision at luminescence mode. Biochemical assay results are presented as the percent Inhibition in Table B2a, or IC50 values in Table B2b.

[2] = biological target: T1, Human adrenergic α2A receptor; assay: Radioligand binding, adrenergic α2A (Protocol Group B); design: purchased Milipore (Millipore); details: Protocol Group B; for Percentage inhibition of ligand binding, Adrenergic α2A (0.1 μM) / inhibition at 0.1 µM: 0.1 μM compound; for Ki: estimated Ki; for inhibition at 0.1 µM: read-out: Percentage inhibition of ligand binding, Adrenergic α2A (0.1 μM)
Method in brief: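 Compounds (1% DMSO vehicle, various concentrations) competed against 2 nM [^3H]MK-912 on recombinant receptor membranes for 60 min at 25° C, Tris-HCl pH 7.4 buffer with Mg2+, Ca2+, BSA. Bound radioligand filtered and counted; 10 μM rauwolscine set nonspecific binding. Values: percent inhibition of specific binding or estimated Ki.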

[3] = biological target: T2, Human adrenergic α2B receptor (Homo sapiens, UniProt P18089); assay: β-Arrestin GPCR functional assay, adrenergic α2B (Protocol B); assay type: cell-based; details: β-arrestin, antagonist vs nor-epinephrine EC80; read-out: IC50 Adrenergic α2B
T2 sequence (P18089 1-450): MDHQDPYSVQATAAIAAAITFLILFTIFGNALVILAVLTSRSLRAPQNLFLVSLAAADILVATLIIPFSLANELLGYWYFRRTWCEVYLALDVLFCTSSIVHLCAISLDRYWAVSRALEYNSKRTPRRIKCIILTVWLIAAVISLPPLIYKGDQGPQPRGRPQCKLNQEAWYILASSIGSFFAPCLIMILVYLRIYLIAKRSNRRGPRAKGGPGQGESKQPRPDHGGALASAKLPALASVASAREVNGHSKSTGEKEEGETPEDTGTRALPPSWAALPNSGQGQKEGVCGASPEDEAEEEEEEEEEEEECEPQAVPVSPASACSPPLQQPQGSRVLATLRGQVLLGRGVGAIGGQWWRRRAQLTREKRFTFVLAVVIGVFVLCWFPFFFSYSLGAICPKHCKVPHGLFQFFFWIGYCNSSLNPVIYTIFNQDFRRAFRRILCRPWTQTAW
Method in brief: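 CHO cells overexpressing human α2B (PathHunter β-arrestin), 12,000 per well, 24 h at 37° C; compounds in 1% DMSO 30 min, then 50 nM norepinephrine (EC80) 90 min at 37° C.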

[4] = biological target: T2, Human adrenergic α2B receptor; assay: Radioligand binding, adrenergic α2B (Protocol Group B); design: purchased Milipore (Millipore); details: Protocol Group B; for Percentage inhibition of ligand binding, Adrenergic α2B (10 nM): 0.01 µM; for Percentage inhibition of ligand binding, Adrenergic α2B (30 nM) / inhibition at 0.03 µM: 30 nM compound; for Percentage inhibition of ligand binding, Adrenergic α2B (0.1 μM): 0.1 μM compound; for Ki: estimated Ki, read-out: Ki α2B; for inhibition at 0.03 µM: read-out: Percentage inhibition of ligand binding, Adrenergic α2B (30 nM)
Method in brief: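 Compounds at various concentrations in 1% DMSO were tested on recombinant membranes in Tris-HCl pH 7.4 buffer containing MgCl2, CaCl2 and 0.2% BSA.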

In the case of `CC(O)(Cn1c2c(c3cc(F)ccc31)C1CCCN1CC2)c1ccncc1` (single isomer, unassigned) [31b], the IC50 [1] is reported as 11300 nM, the “Percentage inhibition of ligand binding, Adrenergic α2A (0.1 μM)” value [2] is reported as 26% and the “Percentage inhibition of ligand binding, Adrenergic α2A (0.3 μM)” value (shortened to “Percentage inhibition … (0.3 μM)”) ([2]; 0.3 μM compound) is reported as 38%. The Ki [2] was 362 nM, the IC50 [3] was 66 nM and the “Percentage inhibition of ligand binding, Adrenergic α2B (10 nM)” value (“Percentage inhibition … (10 nM)” for short) ([4]; 10 nM compound) was 68%. The “Percentage inhibition of ligand binding, Adrenergic α2B (30 nM)” value (shortened to “Percentage inhibition … (30 nM)”) [4] was 90%, the “Percentage inhibition of ligand binding, Adrenergic α2B (0.1 μM)” value ([4]; 0.1 µM) was 97% and the Ki [4] was 2.6 nM.
In the case of `Cc1ccc2c(c1)c1c(n2CC(OC(=O)N2CCCC2)c2ccncc2)CCN(C)C1` (single isomer, unassigned) [4b], the IC50 [1] is reported as 6080 nM, the Ki [2] is reported as 126 nM and the IC50 [3] is reported as 163 nM. The Ki [4] was 3.6 nM.
With `Cc1cc2c3c(n(CC(C)(O)c4ccncc4)c2cc1Cl)CCN1CCCC31` (single isomer, unassigned) [50b] the IC50 [1] was 565 nM, the “Percentage inhibition of ligand binding, Adrenergic α2A (0.1 μM)” value [2] was 73% and the “Percentage inhibition … (0.3 μM)” value ([2]; 0.3 μM compound) was 86%. The Ki [2] was 5.69 nM, the IC50 [3] was 12 nM and the “Percentage inhibition … (10 nM)” value ([4]; 10 nM compound) was 98%. The “Percentage inhibition … (30 nM)” value ([4]; 0.03 µM) was 100%, the “Percentage inhibition of ligand binding, Adrenergic α2B (0.1 μM)” value [4] was 100% and the Ki [4] was 0.75 nM.
`Cc1cc(F)c2c(c1)c1c(n2CC(O)c2ccncc2)CCN2CCCC12` (single isomer, unassigned) [137a] was tested, and the IC50 [1] was 5100 nM, the “Percentage inhibition of ligand binding, Adrenergic α2A (0.1 μM)” value [2] was 56% and the “Percentage inhibition … (0.3 μM)” value ([2]; 0.3 μM compound) was 79%. For the same compound, the Ki [2] was 43.6 nM, the IC50 [3] was 41.3 nM and the “Percentage inhibition … (10 nM)” value ([4]; 10 nM compound) was 83%. It also gave an inhibition at 0.03 µM [4] of 96% and a Ki [4] of 1.5 nM.
`Cc1ccc2c(c1)c1c(n2C[C@@H](OC2CCCC2)c2ccncc2)CCN2CCC[C@H]12` [compound 82, (11cR)-7-[(25)-2-(cyclopentoxy)-2-(4-pyridyl)ethyl]-10-methyl-1,2,3,5,6,11c-hexahydroindolizino[7,8-b]indole] showed an IC50 [1] of 675 nM, an inhibition at 0.1 µM [2] of 92% and an inhibition at 0.3 µM ([2]; 0.3 μM compound, read-out: Percentage inhibition of ligand binding, Adrenergic α2A (0.3 μM)) of 97%. It also gave a Ki [2] of 4.5 nM, an IC50 [3] of 25.4 nM and an inhibition at 0.01 µM ([4]; 10 nM compound, read-out: Percentage inhibition of ligand binding, Adrenergic α2B (10 nM)) of 98%. It also gave an inhibition at 0.03 µM [4] of 99% and a Ki [4] of 1.59 nM.
`OC(Cn1c2c(c3cc(Cl)cc(F)c31)C1CCCN1CC2)c1ccncc1` (single isomer, unassigned) [135b] was tested, and the IC50 [1] was 295 nM, the “Percentage inhibition of ligand binding, Adrenergic α2A (0.1 μM)” value [2] was 79% and the “Percentage inhibition … (0.3 μM)” value ([2]; 0.3 μM compound) was 84%. The Ki [2] was 3.1 nM, the IC50 [3] was 9.27 nM and the “Percentage inhibition … (10 nM)” value ([4]; 10 nM compound) was 84%. The “Percentage inhibition … (30 nM)” value ([4]; 0.03 µM) was 83% and the Ki [4] was 0.69 nM.
With `Cc1ccc2c(c1)c1c(n2CC(O)c2ccncc2)CCN2CCCC12` (single isomer, unassigned) [Compound No. 178d] the “Percentage inhibition of ligand binding, Adrenergic α2A (0.1 μM)” value [2] was 96%, the inhibition at 0.1 µM [2] was 90% and the “Percentage inhibition … (30 nM)” value ([4]; 0.03 µM) was 104%. For the same compound, the inhibition at 0.03 µM [4] was 97%.
